# Laboratory results reported in patent EP1246824B1, “CARBOXAMIDE DIAZEPIN DERIVATIVES, PREPARATION METHOD, USE AS MEDICINES, PHARMACEUTICAL COMPOSITIONS AND USE THEREOF” (Aventis Pharma S.A., priority 1999, dated 2001).
# Like-named read-outs stand apart in the source and are kept apart here.
# How the values were obtained:
# Assay type in all cases: biochemical
# Cathepsine K = biological target: T1, Cathepsine K (Homo sapiens, UniProt P43235); assay: Inhibition of Cathepsine K (fluorogenic substrate Z-Val-arg-AMC); settings: substrate Z-Val-arg-AMC 20 µM, enzyme 5 ng/ml, pH 5.5, 2 h at room temperature; concentration range 50 to 0.5 µM; read-out: IC50 µM Cathepsin K
# T1 sequence (P43235 115-329): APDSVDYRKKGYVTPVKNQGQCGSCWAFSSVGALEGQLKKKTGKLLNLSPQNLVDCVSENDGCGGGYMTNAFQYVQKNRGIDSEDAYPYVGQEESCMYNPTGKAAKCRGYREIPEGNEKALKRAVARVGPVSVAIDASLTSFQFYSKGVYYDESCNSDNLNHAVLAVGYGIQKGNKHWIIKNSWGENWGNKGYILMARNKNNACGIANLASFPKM
# Method: Etude de l'inhibition de Cathepsine K :
# (§1) Les produits à tester (10 mM) sont dilués à 1 mM en DMSO et repartis dans des plaques 96 puits polystyrène Nunc à raison de 2 µl par puits. La colonne 12 de la plaque est réservée pour les contrôles et reçoit donc […] de DMSO (sans produits) par puits. Les plaques sont conservées à -80°C et décongelées le jour de l'expérience.
# (§2) Les produits sont dilués à 50 µM par addition de 38 µl de tampon réaction : acétate de sodium 100 mM, EDTA 5 mM, DTT 1 mM pH 5,5. L'addition ainsi que tous les pipetages suivant sont réalisés par un pipeteur 96 cônes CybiWell. Après mélange des solutions, chaque produit est transféré dans 2 puits (duplicates) d'une plaque 384 puits noire Greiner à raison de 10 µl par puits. On peut donc tester 2 plaques 96 dans une plaque 384.
# (§3) Une solution de substrat à 50 µM, Z-Val-arg-AMC (Calbiochem), est préparée dans le tampon réaction . Le substrat, est ensuite distribué dans tous les puits de la plaque 384 (20 µl par puits).
# (§4) Une solution de Cathepsine K à 12,5 ng/ml est préparée dans le tampon réaction et distribuée dans tous les puits de la plaque 384 (20 µl par puits) exceptés les 16 puits servant de contrôles 100 % d'inhibition (colonne 23 et 24, lignes I à P) qui recevront 20 µl de tampon sans enzyme. Les contrôles […] d'inhibition sont réalisés dans les colonnes 23 et 24, lignes A à H qui ne contiennent pas de produits.
# (§5) Les plaques sont ensuite incubées 2H à température ambiante, puis lues sur Fluoroskan (Labsystems) : excitation 390 nm; émission 460 nm
# (§6) Les concentrations finales de chacun des réactifs sont : Produits 10 µM, Substrat 20 µM, enzyme 5 ng/ml.
# (§7) Les % d'inhibition pour chacun des produits sont calculés en utilisant les points à 0 et 100 % d'inhibition de chaque plaque comme références. Les produits présentant une inhibition significative sont ensuite retestés sur une gamme de concentration allant de 50 à 0,5µM pour déterminer une IC50.
# Cathepsine B = biological target: T2, Cathepsine B (Homo sapiens, UniProt P07858); assay: Inhibition of Cathepsine B (fluorogenic substrate Z-arg-arg-AMC); settings: substrate Z-arg-arg-AMC 20 µM, enzyme 16 ng/ml, 1 h at room temperature; read-out: IC50 µM Cathepsin B
# T2 construct: purchased Calbiochem
# Method: as §1, §2, §3, §4, §5, §6, §7
# Etude de l'inhibition de Cathepsine B: […]
# Papain = biological target: T3, Papain (Carica papaya, UniProt P00784); assay: Inhibition of Papain (protocol as for Cathepsine K)
# T3 construct: purchased Sigma
# T3 sequence (P00784 134-345): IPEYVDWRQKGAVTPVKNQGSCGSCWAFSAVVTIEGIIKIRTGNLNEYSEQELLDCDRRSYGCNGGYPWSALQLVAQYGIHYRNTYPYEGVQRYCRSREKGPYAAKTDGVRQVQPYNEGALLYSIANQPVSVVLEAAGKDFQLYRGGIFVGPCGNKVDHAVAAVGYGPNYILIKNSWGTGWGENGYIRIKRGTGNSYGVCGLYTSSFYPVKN
# Method: as §1, §2, §3, §4, §5, §6, §7
# Etude de l'inhibition de Papain:
# Protocole identique à celui de Cathepsine K exceptés : • Papain (Sigma), solution à 50 ng/ml, concentration finale 20 ng/ml • Incubation 30 min à température ambiante
Compound,IC50 (Cathepsine K) [µM],IC50 (Cathepsine B) [µM],other results
"C=CCOC(=O)CC[C@H](NC(=O)[C@@H]1CCCN2C(=O)CC[C@H](NC(=O)NCCc3cccs3)C(=O)N12)C(=O)COC(=O)c1c(Cl)cccc1Cl [Exemple 141, (4S) 6-[(2,6-dichlorobenzoyl)oxy]-4-[[[(1S,9S)-9-[[[[2-(thien-2-yl)-ethyl]amino]carbonyl]amino]-octahydro-6,10-dioxo-6H-pyridazino[1,2-a][1,2]diazepine-1-yl]carbonyl]amino]-5-oxo-Hexanoatede (2-propenyle)]",9,0.7,
"C=CCOC(=O)CC[C@H](NC(=O)[C@@H]1CCCN2C(=O)CC[C@H](NS(C)(=O)=O)C(=O)N12)C(=O)COC(=O)c1c(Cl)cccc1Cl [Exemple 150, (4S) 6-[(2,6-dichlorobenzoyl)oxy]-4-[[[(1S,9S)-9-[(methylsulfonyl)amino]-octahydro-6,10-dioxo-6H-pyridazino[1,2-a] [1,2]diazepine-1-yl]carbonyl]amino]-5-oxo-Hexanoatede (2-propenyle)]",6,0.6,
"C=CCOC(=O)CC[C@H](NC(=O)[C@@H]1CCCN2C(=O)CC[C@H](NC(=O)NC3CCCCC3)C(=O)N12)C(=O)COC(=O)c1c(Cl)cccc1Cl [Exemple 122, (4S) 6-[(2,6-dichlorobenzoyl)oxy] -4-[[[(1S,9S)-9-[[(cyclohexylamino)carbonyl]amino]-octahydro-6,10-dioxo-6H-pyridazino[1,2-a][1,2]diazepine-1-yl]carbonyl]amino]-5-oxo-Hexanoatede (2-propenyle)]",18,0.7,
"C=CCOC(=O)CC[C@H](NC(=O)[C@@H]1CCCN2C(=O)CC[C@H](NC(=O)NCCc3cccs3)C(=O)N12)C(=O)CSc1nnnn1-c1ccccc1 [Exemple 138, (4S) 6-[(1-phenyl-1H-tetrazol-5-yl)thio]-4-[[[(1S,9S)-9-[[[[2-(thien-2-yl)-ethyl]amino]carbonyl]amino]-octahydro-6,10-dioxo-6H-pyridazino[1,2-a][1,2]diazepine-1-yl]carbonyl]amino]-5-oxo-Hexanoatede (2-propenyle)]",,,"IC50 (Papain; enzyme 20 ng/ml, 30 min at room temperature, read-out: IC50 µM Papain): 8 µM"
"CC(C)C[C@H](NC(=O)[C@@H]1CCCN2C(=O)CC[C@H](NS(=O)(=O)c3ccc(C(F)(F)F)cc3)C(=O)N12)C(=O)C=[N+]=[N-] [Exemple 347, 9-[(9S)-[[4-(trifluoromethyl)phenyl]sulfonyl]amino]-N-((3S)-1-diazo-5-methyl-2-oxo-3-hexyl)-octahydro-6,10-dioxo-6H-(1S)-pyridazino[1,2-a][1,2]diazepine-1-carboxamide]",12,,
"(4S) 6-diazo-4-[[[(1S,9S)-9-[[[[2-(p-2-yl)-ethyl]amino]carbonyl]amino]-octahydro-6,10-dioxo-6H-pyridazino[1,2-a][1,2]diazepine-1-yl]carbonyl]amino]-5-oxo-Hexanoate de (2-propenyle) [Exemple 44]",2,,
"CC(C)(C)Oc1ccc(C[C@H](NC(=O)[C@@H]2CCCN3C(=O)CC[C@H](NC(=O)Nc4ccc(Oc5ccccc5)cc4)C(=O)N23)C(=O)C=[N+]=[N-])cc1 [Exemple 54, 9-[(9S)-[[(4-phenoxyphenyl)amino]carbonyl]amino]-N-[(2S)-4-diazo-1-[4-[(1,1-dimethyl)ethoxy]phenyl]-3-oxo-2-butyl]-6H-(1S)-pyridazino[1,2-a][1,2]diazepine-1-carboxamide]",,,IC50 (Papain): 15 µM
COC(=O)CCCC(=O)OCC(=O)[C@H](Cc1ccccc1)NC(=O)[C@@H]1CCCN2C(=O)CC[C@H](NC(=O)Nc3ccc(Oc4ccccc4)cc3)C(=O)N12 [Exemple 217],,,"IC50 (Papain; read-out: IC50 µM Papain, enzyme 20 ng/ml, 30 min at room temperature): 7 µM"
